Test system: human smooth muscle cells
Test: Inhibition of PDGF-stimulated human smooth muscle cell proliferation (cell count, day 6)
Type: cell-based
Conditions: ratio of IC50 values, SMC vs EC
Procedure: To assess the ability of cladribine to prevent cell proliferation, human smooth muscle or endothelial cells (Clonetics, Walkersville, Md.) were seeded at a density of 2000 cells/cm^2 (approximately […] cells/well) into each well of 12-well plates and cultured with 1.5 ml of growth medium containing 5% fetal calf serum (FCS). After 24 hours, the growth medium was changed and fresh medium containing 10 ng/ml platelet-derived growth factor AB (PDGF AB; LIFE Technologies), as well as various concentrations of cladribine (0.001-10,000 nM) were added with triplicate wells. Medium was replaced with fresh cladribine-containing medium after 3 days. On day six, cells were detached by trypsinization to yield a cell suspension, lightly centrifuged to pellet and then counted manually using a Neubauer hemacytometer system. Clee viability was assessed by trypan blue exclusion.
Table 1 provides the percent inhibition of the various tested concentrations of cladribine on human smooth muscle and endothelial cells in culture. Cladribine produced a concentration-related decrease in the proliferation of both smooth muscle and endothelial cells in this model system. […]

Nc1nc(Cl)nc2c1ncn2[C@H]1C[C@H](O)[C@@H](CO)O1 [Cladribine]
potency as inhibitor of smooth muscle cells relative to endothelial cells: approximately twice as potent
